Laboratory results as given in patent US20240102994A1, “Method to Evaluate the Capability of Compounds on the Trapping of Proteins” (Eisbach Bio GmbH, priority 2020, published 2024).
“Also recorded” adds a separate entry of the source.

How the values were obtained:
GFP-PARP2 = target: T1, GFP-PARP2 (Homo sapiens, UniProt Q9UGN5); assay: Live-cell protein trapping assay: GFP-PARP2 at laser micro-irradiation sites; assay type: cell-based; details: U2OS cells
T1 construct: expressed in transfected cells; host or cells: U2OS
Excerpt: The disclosed method is used to analyze protein trapping induced by compounds. Live-cell imaging allows monitoring of the accumulation of at least one protein, e.g. which is detectably labelled, e.g. fluorophore-tagged, at the induced DNA lesions over time. Time0 (t0) hereby describes the timepoint before induction of DNA damage by irradiation. Thus, the relative enrichment of the at least one protein at DNA lesions within the imaged time frame (from t0 to tEND) can be quantified. This allows to the analysis of the recruitment and retention (protein trapping) kinetics of the at least one protein, e.g. which is detectably labelled, e.g. fluorophore-tagged, at DNA lesions. Suitably, as a first step the accumulation and/or residence time of a protein, e.g. which is detectably labelled, e.g. fluorophore-tagged, is measured in the absence of a test compound (control). The optimal imaging time is hereby determined by the time in which the majority of the protein has released from the damage site, indicated by the decrease of signal, e.g. fluorescent signal, at the DNA lesion (see FIG. 2A). Subsequently, the accumulation and/or residence time of the protein, e.g. which is detectably labelled, e.g. fluorophore-tagged, may be determined in the presence of at least one test compound. […] Using this method, we examined the trapping of GFP-tagged ALC1 in the presence of ALCi-1 compared to a DMSO control.
Eukaryotic cells were seeded onto 4/8-well Nunc Lab-Tek chambers (Thermo Fisher Scientific) in the corresponding cell culture medium, cultured over night at 37° C. and transfected with fluorophore-tagged protein plasmids using XtremeGENE HP DNA transfection reagent (Sigma). […]
The drug- and control-master-mixes were prepared in Leibovitz's L-15 media (+10% FBS). […] Therefore, the optimal imaging time for the protein of interest was determined by investigation of the trapping and release under control conditions (no treatment). […] Subsequently, the fluorophore-tagged protein was measured in the presence of at least one compound. […]

PARP1-GFP = PARP1-GFP (Homo sapiens, UniProt P09874); details: wild-type U2OS cells, 10 μM for 1 h, 355 nm laser, 30 minutes, compared to DMSO
Excerpt: The disclosed method is used to analyze protein trapping induced by compounds. Live-cell imaging allows monitoring of the accumulation of at least one protein, e.g. which is detectably labelled, e.g. fluorophore-tagged, at the induced DNA lesions over time. Time0 (t0) hereby describes the timepoint before induction of DNA damage by irradiation. Thus, the relative enrichment of the at least one protein at DNA lesions within the imaged time frame (from t0 to tEND) can be quantified. This allows to the analysis of the recruitment and retention (protein trapping) kinetics of the at least one protein, e.g. which is detectably labelled, e.g. fluorophore-tagged, at DNA lesions. Suitably, as a first step the accumulation and/or residence time of a protein, e.g. which is detectably labelled, e.g. fluorophore-tagged, is measured in the absence of a test compound (control). The optimal imaging time is hereby determined by the time in which the majority of the protein has released from the damage site, indicated by the decrease of signal, e.g. fluorescent signal, at the DNA lesion (see FIG. 2A). Subsequently, the accumulation and/or residence time of the protein, e.g. which is detectably labelled, e.g. fluorophore-tagged, may be determined in the presence of at least one test compound. […]

T1 sequence (Q9UGN5 whole entry): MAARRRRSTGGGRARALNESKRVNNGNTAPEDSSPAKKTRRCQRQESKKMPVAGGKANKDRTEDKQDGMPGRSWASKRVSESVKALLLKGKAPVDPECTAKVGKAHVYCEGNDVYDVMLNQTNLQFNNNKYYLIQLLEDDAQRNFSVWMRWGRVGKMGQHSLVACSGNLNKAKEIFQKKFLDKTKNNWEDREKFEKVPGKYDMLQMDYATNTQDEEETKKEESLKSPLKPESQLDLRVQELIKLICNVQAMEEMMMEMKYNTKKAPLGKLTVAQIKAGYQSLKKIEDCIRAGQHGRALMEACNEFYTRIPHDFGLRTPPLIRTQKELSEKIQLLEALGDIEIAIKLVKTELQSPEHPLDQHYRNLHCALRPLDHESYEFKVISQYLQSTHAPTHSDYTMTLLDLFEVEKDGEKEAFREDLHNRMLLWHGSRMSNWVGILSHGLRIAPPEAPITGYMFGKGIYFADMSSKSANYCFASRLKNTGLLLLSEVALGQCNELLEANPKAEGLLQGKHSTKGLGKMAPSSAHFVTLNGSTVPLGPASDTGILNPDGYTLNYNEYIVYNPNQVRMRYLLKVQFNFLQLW
Sequence of PARP1-GFP (P09874 whole entry): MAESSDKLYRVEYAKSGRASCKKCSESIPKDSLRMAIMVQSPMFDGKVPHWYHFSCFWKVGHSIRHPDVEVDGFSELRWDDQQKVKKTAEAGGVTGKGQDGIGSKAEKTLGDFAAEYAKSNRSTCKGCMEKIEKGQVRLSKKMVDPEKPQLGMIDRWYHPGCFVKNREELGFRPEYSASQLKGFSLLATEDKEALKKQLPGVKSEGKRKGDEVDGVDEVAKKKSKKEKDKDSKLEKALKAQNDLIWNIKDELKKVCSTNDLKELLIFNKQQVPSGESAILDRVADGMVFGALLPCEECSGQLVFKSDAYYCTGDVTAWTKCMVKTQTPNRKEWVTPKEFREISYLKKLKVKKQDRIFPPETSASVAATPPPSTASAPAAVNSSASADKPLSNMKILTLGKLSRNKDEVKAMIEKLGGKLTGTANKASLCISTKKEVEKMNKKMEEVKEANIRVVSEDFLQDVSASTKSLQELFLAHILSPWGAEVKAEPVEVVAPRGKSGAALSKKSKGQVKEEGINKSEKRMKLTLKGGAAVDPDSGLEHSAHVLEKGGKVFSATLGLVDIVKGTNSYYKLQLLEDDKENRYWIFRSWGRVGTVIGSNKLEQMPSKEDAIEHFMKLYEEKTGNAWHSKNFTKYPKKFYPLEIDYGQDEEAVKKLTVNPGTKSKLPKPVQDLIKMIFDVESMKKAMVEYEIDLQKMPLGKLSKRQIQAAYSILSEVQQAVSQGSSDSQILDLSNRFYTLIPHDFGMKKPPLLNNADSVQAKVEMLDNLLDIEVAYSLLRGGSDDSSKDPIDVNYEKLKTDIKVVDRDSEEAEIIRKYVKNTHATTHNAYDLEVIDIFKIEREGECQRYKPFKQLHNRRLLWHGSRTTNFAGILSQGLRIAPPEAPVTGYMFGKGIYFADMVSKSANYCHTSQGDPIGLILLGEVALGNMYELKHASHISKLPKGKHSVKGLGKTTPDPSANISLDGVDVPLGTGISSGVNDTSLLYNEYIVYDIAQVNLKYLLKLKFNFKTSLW

SMILES | retention of PARP2 at induced damage sites (PARP trapping) (GFP-PARP2; talazoparib 100 nM, 10% 355 nm laser, 15 minutes, vs absence of PARPi) | recruitment of PARP2 to the damage site (GFP-PARP2; veliparib 10 μM, 10% 355 nm laser, 15 minutes, vs absence of PARPi) | PARP2 trapping at DNA lesions (GFP-PARP2; veliparib, compared to DMSO-only control) | retention of PARP1 at DNA damage sites (PARP1-trapping) (PARP1-GFP)
Cn1ncnc1[C@H]1c2n[nH]c(=O)c3cc(F)cc(c23)N[C@@H]1c1ccc(F)cc1 [talazoparib] | enhanced retention of PARP2 | – | – | –
C[C@]1(c2nc3c(C(N)=O)cccc3[nH]2)CCCN1 [veliparib] | – | less recruitment of PARP2; also recorded: overall less PARP2 recruitment | only weak trapping | enhanced retention of PARP1
